Assay results from patent US7531333B2, “Process for producing isoprenoid compounds by microorganisms and a method for screening compounds with antibiotic or weeding activity” (Kyowa Hakko Kogyo Co., Ltd., priority 1998, dated 2009).
Like-named read-outs stand apart in the source and are kept apart here.

Key:
[1] = biological target: T1, 1-deoxy-D-xylulose 5-phosphate reductoisomerase (Escherichia coli, UniProt P45568); assay: Enzymatic activity of yaeM gene product (NADPH decrease, absorbance at 340 nm); type: biochemical, E. coli
T1 construct: made in house; host or cells: E. coli M15/pREP4
T1 sequence (P45568 1-398 R277V/T278R/P279Q/I280L/A281P/H282T/T283P/M284W): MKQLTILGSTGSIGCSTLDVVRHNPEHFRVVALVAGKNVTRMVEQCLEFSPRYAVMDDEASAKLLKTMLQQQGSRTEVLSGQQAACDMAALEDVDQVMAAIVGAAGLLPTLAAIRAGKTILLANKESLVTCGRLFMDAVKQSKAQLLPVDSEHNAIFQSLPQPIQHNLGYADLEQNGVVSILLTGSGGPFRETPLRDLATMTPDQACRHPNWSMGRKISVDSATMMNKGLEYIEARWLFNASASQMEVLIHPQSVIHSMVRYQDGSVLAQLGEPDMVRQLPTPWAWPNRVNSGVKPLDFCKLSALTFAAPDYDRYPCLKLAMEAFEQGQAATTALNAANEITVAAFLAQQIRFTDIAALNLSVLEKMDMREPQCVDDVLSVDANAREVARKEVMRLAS
Description: (§1) […] of 1-deoxy-D-xylulose 5-phosphate (final concentration) synthesized as described above was added to 1 ml of a reaction solution containing […] Tris-hydrochloric acid (pH 7.5), […] MmCl2, […] NADPH and yaeM gene product obtained in Example 8 (2) ? , and then incubated at 37° C.
The enzymological characteristics of 1-deoxy-D-xylulose 5-phosphate reductoisomerase were examined using 1 ml of the reaction system as described in Example 8 (2) ? . Here, 1 unit is defined as the activity to oxidize 1 mmol of NADPH per a minute.

FS1576 = assay: Cell growth of parent strain FS1576 on LB agar with 2-C-methyl-D-erythritol; type: cell-based, E. coli; conditions: FS1576, 1 g/l of 2-C-methyl-D-erythritol, 37° C., 2 days
Description: (§2) The yaeM-disrupted strain produced as described above and its parent strain FS1576 were spread on LB agar medium and the same medium containing 1 g/l of 2-C-methyl-D-erythritol, then cultured at 37° C.

yaeM-deleted strain = assay: Cell growth of yaeM-disrupted strain on LB agar with 2-C-methyl-D-erythritol; type: cell-based, E. coli; conditions: 1 g/l of 2-C-methyl-D-erythritol, 37° C., 2 days
Description: as §2

[2] = biological target: T1, 1-deoxy-D-xylulose 5-phosphate reductoisomerase; type: biochemical, E. coli; conditions: various concentrations, 37° C., FIG. 4
Description: as §1

E. coli W3110 = assay: Growth of E. coli W3110 on LB agar medium containing fosmidomycin; type: cell-based; conditions: 37° C., two days
Description: E. coli W3110 was spread on LB agar medium, the same medium containing 3.13 mg/l of fosmidomycin, and the same medium containing 3.13 mg/l of fosmidomycin and 0.25 g/l of 2-C-methyl-D-erythritol, then cultured at 37° C.

[3] = additive at 1 mol/l, N.D. = no activity was detected, 1 unit = activity to oxidize 1 mmol of NADPH per minute

Structure (SMILES): O=S(=O)([O-])[O-].[Ni+2] [NiSO4]
- Specific Activity [1, 3]: 0.2 units/mg protein

Structure (SMILES): [Cl][Mn][Cl] [MnCl2]
- Specific Activity [1, 3]: 11.8 units/mg protein

Structure (SMILES): CC(=O)[C@@H](O)[C@H](O)CO [1-deoxy-D-xylulose]
- Reaction when used as substrate instead of 1-deoxy-D-xylulose 5-phosphate [1]: No reaction occurred

Structure (SMILES): C[C@](O)(CO)[C@H](O)CO [ME, 2-C-methyl-D-erythritol]
- Cell growth on LB + ME (FS1576): +
- Cell growth on LB + ME (yaeM-deleted strain): +

Structure (SMILES): NC(=O)c1ccc[n+]([C@@H]2O[C@H](COP(=O)([O-])OP(=O)(O)OC[C@H]3O[C@@H](n4cnc5c(N)ncnc54)[C@H](OP(=O)(O)O)[C@@H]3O)[C@@H](O)[C@H]2O)c1 [NADP]
- Km ([1]; in the presence of MnCl2): 7.4 µM

Structure (SMILES): [Cl-].[Cl-].[Mg+2] [MgCl2]
- Specific Activity [1, 3]: 4.0 units/mg protein

Structure (SMILES): [Cl-].[Cl-].[Co+2] [CoCl2]
- Specific Activity [1]: 6.0 units/mg protein

Structure (SMILES): [Ca+2].[Cl-].[Cl-] [CaCl2]
- Specific Activity [1, 3]: 0.2 units/mg protein

Structure (SMILES): NC(=O)C1=CN([C@@H]2O[C@H](COP(=O)(O)OP(=O)(O)OC[C@H]3O[C@@H](n4cnc5c(N)ncnc54)[C@H](O)[C@@H]3O)[C@@H](O)[C@H]2O)C=CC1 [NADH]
- Activity when NADPH was replaced with NADH ([1]; relative to activity with NADPH): below 1/100

Structure (SMILES): O=S(=O)([O-])[O-].[Zn+2] [ZnSO4]
- Specific Activity [1, 3]: 0.3 units/mg protein

Structure (SMILES): O=CN(O)CCCP(=O)(O)O [fosmidomycin, 3-(N-formyl-N-hydroxyamino)propylphosphonic acid]
- Inhibition of 1-deoxy-D-xylulose 5-phosphate reductoisomerase [2]: inhibit
- Growth of the microorganism on LB agar medium (E. coli W3110; 3.13 mg/l of fosmidomycin and 0.25 g/l of 2-C-methyl-D-erythritol): could grow
- Growth of the microorganism on LB agar medium (E. coli W3110; 3.13 mg/l of fosmidomycin only): no microorganism grew
